Reference: patent US20070093549A1, “Methods for preparation of ladostigil tartrate crystalline form A1” (priority 2005, published 2007)

What was measured:
[1] = system: animal models of Alzheimer's disease; settings: background statement with literature references; cited from earlier work
[2] = Exposure of form A1 to various humidity conditions (TGA and crystal form); assay type: physicochemical
Description: (§1) X-Ray powder diffraction data were obtained by a SCINTAG powder X-Ray diffractometer model X'TRA equipped with a solid state detector. Copper radiation of 1.5418 Å was used. A round aluminum sample holder with round zero background quartz plate, with cavity of 25 (diameter)*0.5 (depth) mm was used.
TGA analysis was done using a Mettler M3 meter. The weight of the samples was about 10 mg. The samples were scanned at a rate of 10° C./min from 25° C. to 200° C. The oven was constantly purged with nitrogen gas at a flow rate of 40 ml/min. Standard 70 μl alumina crucibles covered by lids with 1 hole were used.
Ladostigil tartrate form A1 was exposed to various humidity conditions at room temperature for 14 days. TGA was performed, and crystal form was analyzed.

[3] = Effect of micronization, pressing and grinding (XRD); assay type: physicochemical; settings: pressing 1 minute at 100 metric tons, by XRD
Description: as §1
The effects of micronization, pressing (1 minute at 100 metric tons) and grinding were determined by XRD and the following results were obtained: […]

[4] = RH 100%, room temperature, 14 days

For `C#CCN[C@@H]1CCc2ccc(OC(=O)N(C)CC)cc21` [Ladostigil, ethyl-methyl-carbamic acid (R)-3-prop-2-ynylamino-indan-5-yl ester], the “efficacy in animal models of Alzheimer's disease” value [1] is listed as “effective”.
In the case of “carbamic acid, ethylmethyl-, (3R)-2,3-dihydro-3-(2-propynylamino)-1H-inden-5-yl ester, (2R,3R)-2,3-dihydroxybutanedioate (2:1) [Ladostigil tartrate form A1]”, the TGA ([2]; RH 60%, room temperature, 14 days) is reported as 0.2, the TGA ([2]; RH 80%, room temperature, 14 days) is reported as 0.1 and the Resulting form [2, 4] is reported as “transformed to a mixture of Form A and A1”. For the same molecule, the TGA [2, 4] was 0.1, the water content change ([2]; after exposure to 100% RH for 14 days) was “did not change significantly” and the hygroscopicity ([2]; concluded from humidity exposure results) was “neither Form A nor Form A1 is hygroscopic”. The crystallinity after pressing [3] was “lose some extent of crystallinity”.
